Experimental data reported in patent US9462807B2, “Difenoconazole sterepospmeric composition with reduced phytotoxicity” (Syngenta Participations AG, priority 2013, dated 2016).

System: Wheat (variety "Riband")
Assay: Phytotoxicity on pot-grown wheat after track-sprayer application
Format: in vivo
Conditions: versus 2S,4R (Ia), 2R,4R (Ic) and 2S,4S (Id)
Description: Wheat seeds (variety “Riband”) were sown in 6.5 cm diameter pots with typically 6 seeds per pot. The growing media comprised 66.5% TKS1 peat soil, 30% sugar beet soil and 3.5% sand. The seeds were covered with a fine layer of soil and the pots were watered. Within a day of sowing the pots were treated with 5 mL of a solution of the growth regulator trinexapac-ethyl (Moddus 250 EC™ from Syngenta) diluted 1 part in 1000 parts water. The pots were kept in a controlled environment room at 19° C. constant temperature, 60% relative humidity and a 14 hour day length until test treatment at which time the plants were around 3 weeks old. Plant density was reduced to typically 4 plants per pot prior to application of the test treatments.
The difenoconazole formulations were mixed with water and ultrasonically agitated in order to achieve a homogeneous emulsion. Spray solutions were then made with 9 parts water to 1 part isopropanol by volume. The test treatments were applied using a track-sprayer with a single flat-fan nozzle at a height of 60 cm and calibrated to apply the equivalent of 200 litres per hectare.
The symptoms of phytotoxicity on wheat caused by difenoconazole included chlorosis and/or necrosis.
Test wheat plants were grown and the formulations applied as for Example 3. […]

With `C[C@H]1CO[C@](Cn2cncn2)(c2ccc(Oc3ccc(Cl)cc3)cc2Cl)O1` [Ib] the “Phytotoxic damage to wheat compared with the other stereoisomers” value was “less phytotoxic damage”.
